In the first assay the target is Dipeptidyl peptidase 8 (Homo sapiens, UniProt Q6V1X1). Briefly: Inhibition of FLAG-tagged human DPP8 expressed in 293-F cells pre-incubated for 20 mins before Gly-Pro-pNA substrate addition and measured after 90 mins. The assay is classed as cell-based.
Dipeptidyl peptidase 8, sequence (Q6V1X1 whole entry): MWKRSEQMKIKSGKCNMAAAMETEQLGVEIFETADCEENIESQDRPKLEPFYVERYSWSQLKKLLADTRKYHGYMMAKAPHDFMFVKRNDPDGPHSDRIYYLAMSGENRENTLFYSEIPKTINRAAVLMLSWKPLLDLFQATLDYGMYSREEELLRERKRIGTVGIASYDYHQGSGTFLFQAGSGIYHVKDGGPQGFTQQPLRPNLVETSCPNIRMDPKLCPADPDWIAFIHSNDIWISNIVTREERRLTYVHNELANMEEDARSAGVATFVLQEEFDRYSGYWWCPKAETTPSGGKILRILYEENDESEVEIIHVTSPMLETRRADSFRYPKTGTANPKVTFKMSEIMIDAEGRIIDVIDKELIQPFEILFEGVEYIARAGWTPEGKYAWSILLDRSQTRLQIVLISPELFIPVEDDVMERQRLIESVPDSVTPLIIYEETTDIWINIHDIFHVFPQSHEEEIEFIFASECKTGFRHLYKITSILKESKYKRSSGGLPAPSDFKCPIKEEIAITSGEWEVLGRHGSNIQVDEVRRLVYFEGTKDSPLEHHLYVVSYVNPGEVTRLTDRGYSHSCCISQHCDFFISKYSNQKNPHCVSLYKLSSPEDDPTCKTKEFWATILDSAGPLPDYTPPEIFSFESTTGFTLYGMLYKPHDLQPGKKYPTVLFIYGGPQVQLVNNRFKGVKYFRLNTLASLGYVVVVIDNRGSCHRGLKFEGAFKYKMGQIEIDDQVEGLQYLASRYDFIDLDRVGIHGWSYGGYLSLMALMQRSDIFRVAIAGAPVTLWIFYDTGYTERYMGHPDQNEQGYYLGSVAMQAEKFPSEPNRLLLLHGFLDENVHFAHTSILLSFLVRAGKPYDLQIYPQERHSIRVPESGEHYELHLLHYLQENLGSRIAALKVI
With `Cc1ccc(-c2c(CN)c(CC(C)C)nc(C)c2C(=O)OCc2ccc(C(=O)O)cc2)cc1`, the IC50 (commonly the point on the concentration scale where inhibition reaches its midpoint) was over 100 µM.

In a further assay the test system is Rattus norvegicus. The assay is described as follows: Ex vivo inhibition of DPP4 in Sprague-Dawley rat plasma at 1 mg/kg, po after 1 to 6 hrs using Gly-Pro-pNA substrate. Type of assay: functional.
Turning to `Cc1ccc(-c2c(CN)c(CC(C)C)nc3ccc(-c4nc(C(=O)O)cs4)cc23)cc1`, the inhibition in vivo (as a rule, the relative decrease from the control value, in per cent) at 1 mg/kg is over 50%.

The target in another assay is Dipeptidyl peptidase 4 (Homo sapiens, UniProt P27487).
Dipeptidyl peptidase 4, sequence (P27487 whole entry): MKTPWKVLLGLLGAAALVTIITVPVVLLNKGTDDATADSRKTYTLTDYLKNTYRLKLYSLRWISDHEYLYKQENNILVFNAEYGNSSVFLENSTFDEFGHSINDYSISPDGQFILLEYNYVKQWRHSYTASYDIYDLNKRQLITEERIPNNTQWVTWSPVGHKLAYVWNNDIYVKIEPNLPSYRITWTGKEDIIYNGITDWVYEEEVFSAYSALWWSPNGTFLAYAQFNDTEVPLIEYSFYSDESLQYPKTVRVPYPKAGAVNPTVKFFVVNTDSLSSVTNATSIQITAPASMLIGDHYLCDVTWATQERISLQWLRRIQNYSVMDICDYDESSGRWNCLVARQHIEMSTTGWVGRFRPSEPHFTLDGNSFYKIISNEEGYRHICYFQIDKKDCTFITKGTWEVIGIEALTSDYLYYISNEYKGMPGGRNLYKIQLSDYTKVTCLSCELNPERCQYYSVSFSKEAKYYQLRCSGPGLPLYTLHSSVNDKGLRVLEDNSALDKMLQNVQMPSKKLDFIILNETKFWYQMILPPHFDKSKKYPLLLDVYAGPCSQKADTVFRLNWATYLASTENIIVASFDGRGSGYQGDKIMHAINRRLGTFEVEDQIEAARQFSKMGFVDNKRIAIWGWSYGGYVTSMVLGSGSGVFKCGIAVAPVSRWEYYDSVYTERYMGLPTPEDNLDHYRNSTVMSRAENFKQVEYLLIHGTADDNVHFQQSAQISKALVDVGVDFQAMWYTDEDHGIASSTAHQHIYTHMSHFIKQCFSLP
Description: Inhibition of human DPP4 purified from Caco2 cells pre-incubated for 15 mins before Gly-Pro-pNA substrate addition and measured after 60 mins
`Cc1ccc(-c2c(CN)c(CC(C)C)nc(C)c2C(=O)OC[C@H]2CC[C@H](C(=O)O)CC2)cc1`: the IC50 is 0.08 µM. Still for that read-out and setting: then `Cc1ccc(-c2c(COCc3ccc(C(=O)O)cc3)c(C)nc(CC(C)C)c2CN)cc1`, with 0.0072 µM; and `NCc1c(Cc2ccccc2)nc2ccc(OCC(N)=O)cc2c1-c1ccccc1`, with 0.72 µM; and `Cc1ccc(-c2c(CN)c(CC(C)C)nc3ccc(-c4nc(C(=O)O)cs4)cc23)cc1`, with 0.00038 µM.

Consider `Cc1ccc(-c2c(-c3nc(C(N)=O)cs3)cnc(CC(C)C)c2CN)cc1`, for which the IC50 was 0.0021 µM.

Turning to `Cc1ccc(-c2c(CN)c(CC(C)C)nc(C)c2C(=O)OCCCC(=O)O)cc1`, the IC50 worked out at 0.47 µM. On the same count and under the same terms, then `Cc1ccc(-c2c(CN)c(CC(C)C)nc3ccc(OCCCC(=O)O)cc23)cc1`, with 0.017 µM.

The molecule `CC(C)Cc1nc2ccc(Br)cc2c(-c2ccccc2)c1CN` came in with an IC50 of 0.63 µM.

Molecule `CCCCCc1nc2ccc(OCC(N)=O)cc2c(-c2ccccc2)c1CN` displayed a half-inhibitory concentration (IC50) of 0.54 µM.

For the molecule `Cc1ccc(-c2c(CN)c(CC(C)C)nc3ccc(OCCC(=O)O)cc23)cc1`, the IC50 amounted to 0.029 µM.

`Cc1ccc(-c2c(CN)c(CC(C)C)nc3ccc(OCCCCCC(=O)O)cc23)cc1` returned an IC50 of 0.0068 µM. On the same count and under the same terms, for `CC(C)Cn1c(CN)c(-c2ccccc2)c2cc(Br)ccc2c1=O` the value was 1.2 µM; for `Cc1ccc(-c2c(CN)c(CC(C)C)nc(C)c2C(=O)OCc2ccccc2C(=O)O)cc1`, 0.029 µM. Still for that read-out and setting: for `Cc1ccc(-c2c(CN)c(CC(C)C)nc3ccc(OCCCCC(N)=O)cc23)cc1` the value was 0.013 µM.

For the molecule `Cc1ccc(-c2c(CN)c(CC(C)C)nc3ccc(OCC(=O)O)cc23)cc1`, the half-inhibitory concentration (IC50) turned out to be 0.14 µM. The same measure, in the same setting: then `Cc1ccc(-c2c(CN)c(CC(C)C)nc(C)c2C(=O)OCc2cccc(C(=O)O)c2)cc1`, with 0.087 µM. The same measure, in the same setting: for `CCCCc1nc2ccc(OCC(N)=O)cc2c(-c2ccccc2)c1CN` the value was 0.62 µM; for `Cc1ccc(-c2c(CN)c(CC(C)C)nc3ccc(-c4ccc(C(=O)O)o4)cc23)cc1`, 0.028 µM. Consider `CC(C)(C)Cc1nc2ccc(OCC(N)=O)cc2c(-c2ccccc2)c1CN`, for which it took 0.25 µM to reach half-maximal inhibition (IC50). On the same count and under the same terms, then `CC(C)Cn1c(CN)c(-c2ccccc2)c2cc(Br)cnc2c1=O`, with 1.2 µM; and `Cc1ccc(-c2c(CN)n(CC(C)C)c(=O)c3ccc(OCC(N)=O)cc23)cc1`, with 0.22 µM; and `Cc1ccc(-c2c(CCc3nc(C(N)=O)cs3)c(C)nc(CC(C)C)c2CN)cc1`, with 0.0085 µM.

Consider `CC(C)Cc1nc2ccc(C(N)=O)cc2c(-c2ccccc2)c1CN`, for which the concentration for half-maximal inhibition (IC50) worked out at 0.17 µM. On the same count and under the same terms, then `CC(=O)c1csc(-c2cnc(CC(C)C)c(CN)c2-c2ccc(C)cc2)n1`, with 0.0087 µM; and `Cc1ccc(-c2c(/C=C/c3nc(C(=O)O)cs3)c(C)nc(CC(C)C)c2CN)cc1`, with 0.0055 µM.

The molecule `Cc1ccc(-c2c(CCc3nc(C(=O)O)cs3)c(C)nc(CC(C)C)c2CN)cc1` came in with an IC50 of 0.0026 µM. On the same count and under the same terms, then `Cc1ccc(-c2c(CN)c(CC(C)C)nc3ccc(OCCCCC(=O)O)cc23)cc1`, with 0.0046 µM; and `Cc1ccc(-c2c(CN)c(CC(C)C)nc(C)c2C(=O)OCc2ccc(C(=O)O)cc2)cc1`, with 0.017 µM.

Take `CCCc1nc2ccc(OCC(N)=O)cc2c(-c2ccccc2)c1CN`: the IC50 was found to be 0.51 µM. Still for that read-out and setting: then `CC(C)Cn1c(CN)c(-c2ccccc2)c2cc(C(N)=O)cnc2c1=O`, with 0.47 µM.

For the origin of these results see ChEMBL document CHEMBL4033726, “Design of potent dipeptidyl peptidase IV (DPP-4) inhibitors by employing a strategy to form a salt bridge with Lys554” (Bioorg Med Chem Lett, 2017).
